Laboratory results: PubChem BioAssay AID2060909 (Molecular Pharmacology Branch, DTP, NCI, 2025)
Blank lines part the entries; values can stand above or below the compound they belong to.

Test system: 362531-283-R-J2-PDC complex spheroid viability
Experiment: Anticancer human tumor 362531-283-R-J2-PDC patient-derived colon adenocarcinoma cell line growth inhibition [RAS]
Settings: for IC50: curve of first compound; for viability, T/C: stronger effect = lower value
How it was run: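 Multi-cell-type spheroids: tumor cells plus HUVEC endothelial cells and mesenchymal stem cells. RAS-pathway inhibitors were combined with targeted agents, each dosed in half-log steps down from clinical Cmax, or from 10 microM when Cmax was unknown.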

[1] = second compound 0.000949 µM, first compound 0.00316 µM
[2] = second compound 0.000949 µM, first compound 0.01 µM
[3] = second compound 0.000949 µM, first compound 0.0316 µM
[4] = second compound 0.000949 µM, first compound 0.1 µM
[5] = second compound 0.000949 µM, first compound 0.316 µM
[6] = second compound 0.000949 µM, first compound 1 µM
[7] = second compound 0.003 µM, first compound 0.00316 µM
[8] = second compound 0.003 µM, first compound 0.01 µM
[9] = second compound 0.003 µM, first compound 0.0316 µM
[10] = second compound 0.003 µM, first compound 0.1 µM
[11] = second compound 0.003 µM, first compound 0.316 µM
[12] = second compound 0.003 µM, first compound 1 µM
[13] = second compound 0.00949 µM, first compound 0.00316 µM
[14] = second compound 0.00949 µM, first compound 0.01 µM
[15] = second compound 0.00949 µM, first compound 0.0316 µM
[16] = second compound 0.00949 µM, first compound 0.1 µM
[17] = second compound 0.00949 µM, first compound 0.316 µM
[18] = second compound 0.00949 µM, first compound 1 µM
[19] = second compound 0.03 µM, first compound 0.00316 µM
[20] = second compound 0.03 µM, first compound 0.01 µM
[21] = second compound 0.03 µM, first compound 0.0316 µM
[22] = second compound 0.03 µM, first compound 0.1 µM
[23] = second compound 0.03 µM, first compound 0.316 µM
[24] = second compound 0.03 µM, first compound 1 µM
[25] = second compound 0.0949 µM, first compound 0.00316 µM
[26] = second compound 0.0949 µM, first compound 0.01 µM
[27] = second compound 0.0949 µM, first compound 0.0316 µM
[28] = second compound 0.0949 µM, first compound 0.1 µM
[29] = second compound 0.0949 µM, first compound 0.316 µM
[30] = second compound 0.0949 µM, first compound 1 µM
[31] = second compound 0.3 µM, first compound 0.00316 µM
[32] = second compound 0.3 µM, first compound 0.01 µM
[33] = second compound 0.3 µM, first compound 0.0316 µM
[34] = second compound 0.3 µM, first compound 0.1 µM
[35] = second compound 0.3 µM, first compound 0.316 µM
[36] = second compound 0.3 µM, first compound 1 µM
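Also: spheroids exposed to the agents for 7 days before readout.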
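For viability, T/C in this document: luminescence viability as percent of DMSO vehicle control wells.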

- IC50 (second compound 0.000949 µM): > 1 µM
- IC50 (second compound 0.003 µM): > 1 µM
- IC50 (second compound 0.00949 µM): > 1 µM
- IC50 (second compound 0.03 µM): > 1 µM
- IC50 (second compound 0.0949 µM): > 1 µM
- IC50 (second compound 0.3 µM): < 0.00316 µM
SMILES: C=CC(=O)N1CCN(c2nc(OCC3CCCN3C)nc3c(F)c(-c4nc(N)cc(C)c4C(F)(F)F)c(Cl)cc23)C(C)C1 (stereo not drawn) + CCn1c(-c2cc(N3CCN(C)CC3)cnc2C(C)OC)c2c3cc(ccc31)-c1csc(n1)CC(NC(=O)C1CC1C)C(=O)N1CCCC(N1)C(=O)OCC(C)(C)C2
- viability, T/C [1]: 101%
- viability, T/C [2]: 100%
- viability, T/C [3]: 107%
- viability, T/C [4]: 92.5%
- viability, T/C [5]: 94.3%
- viability, T/C [6]: 103%
- viability, T/C [7]: 107%
- viability, T/C [8]: 103%
- viability, T/C [9]: 97%
- viability, T/C [10]: 92%
- viability, T/C [11]: 104%
- viability, T/C [12]: 91.7%
- viability, T/C [13]: 93.7%
- viability, T/C [14]: 108%
- viability, T/C [15]: 104%
- viability, T/C [16]: 99.1%
- viability, T/C [17]: 108%
- viability, T/C [18]: 106%
- viability, T/C [19]: 87.8%
- viability, T/C [20]: 104%
- viability, T/C [21]: 86.8%
- viability, T/C [22]: 81.1%
- viability, T/C [23]: 95.7%
- viability, T/C [24]: 101%
- viability, T/C [25]: 88%
- viability, T/C [26]: 87.5%
- viability, T/C [27]: 81.2%
- viability, T/C [28]: 80.3%
- viability, T/C [29]: 75.5%
- viability, T/C [30]: 90.5%
- viability, T/C [31]: 43%
- viability, T/C [32]: 57%
- viability, T/C [33]: 41.2%
- viability, T/C [34]: 45.9%
- viability, T/C [35]: 45.9%
- viability, T/C [36]: 35%

- IC50 (second compound 0.000949 µM): > 0.3 µM
- IC50 (second compound 0.003 µM): > 0.3 µM
- IC50 (second compound 0.00949 µM): > 0.3 µM
- IC50 (second compound 0.03 µM): > 0.3 µM
- IC50 (second compound 0.0949 µM): > 0.3 µM
- IC50 (second compound 0.3 µM): < 0.000949 µM
SMILES: CC1(C)CCC(Nc2ncc(C(F)(F)F)c(-c3c[nH]c4c(P(C)(C)=O)c(C#N)ccc34)n2)CN1 (stereo not drawn) + CCn1c(-c2cc(N3CCN(C)CC3)cnc2C(C)OC)c2c3cc(ccc31)-c1csc(n1)CC(NC(=O)C1CC1C)C(=O)N1CCCC(N1)C(=O)OCC(C)(C)C2
- viability, T/C (second compound 0.000949 µM, first compound 0.000949 µM): 104%
- viability, T/C (second compound 0.000949 µM, first compound 0.003 µM): 97.3%
- viability, T/C (second compound 0.000949 µM, first compound 0.00949 µM): 100%
- viability, T/C (second compound 0.000949 µM, first compound 0.03 µM): 99.7%
- viability, T/C (second compound 0.000949 µM, first compound 0.0949 µM): 93%
- viability, T/C (second compound 0.000949 µM, first compound 0.3 µM): 95.1%
- viability, T/C (second compound 0.003 µM, first compound 0.000949 µM): 104%
- viability, T/C (second compound 0.003 µM, first compound 0.003 µM): 102%
- viability, T/C (second compound 0.003 µM, first compound 0.00949 µM): 104%
- viability, T/C (second compound 0.003 µM, first compound 0.03 µM): 97.1%
- viability, T/C (second compound 0.003 µM, first compound 0.0949 µM): 101%
- viability, T/C (second compound 0.003 µM, first compound 0.3 µM): 95.3%
- viability, T/C (second compound 0.00949 µM, first compound 0.000949 µM): 103%
- viability, T/C (second compound 0.00949 µM, first compound 0.003 µM): 110%
- viability, T/C (second compound 0.00949 µM, first compound 0.00949 µM): 101%
- viability, T/C (second compound 0.00949 µM, first compound 0.03 µM): 100%
- viability, T/C (second compound 0.00949 µM, first compound 0.0949 µM): 105%
- viability, T/C (second compound 0.00949 µM, first compound 0.3 µM): 104%
- viability, T/C (second compound 0.03 µM, first compound 0.000949 µM): 101%
- viability, T/C (second compound 0.03 µM, first compound 0.003 µM): 107%
- viability, T/C (second compound 0.03 µM, first compound 0.00949 µM): 93.7%
- viability, T/C (second compound 0.03 µM, first compound 0.03 µM): 92.9%
- viability, T/C (second compound 0.03 µM, first compound 0.0949 µM): 98.6%
- viability, T/C (second compound 0.03 µM, first compound 0.3 µM): 98.5%
- viability, T/C (second compound 0.0949 µM, first compound 0.000949 µM): 85%
- viability, T/C (second compound 0.0949 µM, first compound 0.003 µM): 82%
- viability, T/C (second compound 0.0949 µM, first compound 0.00949 µM): 75.9%
- viability, T/C (second compound 0.0949 µM, first compound 0.03 µM): 82.2%
- viability, T/C (second compound 0.0949 µM, first compound 0.0949 µM): 82.2%
- viability, T/C (second compound 0.0949 µM, first compound 0.3 µM): 102%
- viability, T/C (second compound 0.3 µM, first compound 0.000949 µM): 40.9%
- viability, T/C (second compound 0.3 µM, first compound 0.003 µM): 52%
- viability, T/C (second compound 0.3 µM, first compound 0.00949 µM): 60.3%
- viability, T/C (second compound 0.3 µM, first compound 0.03 µM): 58.7%
- viability, T/C (second compound 0.3 µM, first compound 0.0949 µM): 68.5%
- viability, T/C (second compound 0.3 µM, first compound 0.3 µM): 76.8%

- IC50 (second compound 0.000949 µM): > 1 µM
- IC50 (second compound 0.003 µM): > 1 µM
- IC50 (second compound 0.00949 µM): > 1 µM
- IC50 (second compound 0.03 µM): > 1 µM
- IC50 (second compound 0.0949 µM): > 1 µM
- IC50 (second compound 0.3 µM): > 1 µM
SMILES: C=CC(=O)Nc1cc(Nc2nccc(-c3cn(C)c4ccccc34)n2)c(OC)cc1N(C)CCN(C)C + CCn1c(-c2cccnc2C(C)OC)c2c3cc(ccc31)N1CCOC(CC(NC(=O)C(C(C)C)N(C)C(=O)C3(F)CCN(C(=O)C#CC(C)(C)N(C)C)CC3)C(=O)N3CCCC(N3)C(=O)OCC(C)(C)C2)C1
- viability, T/C [1]: 92.4%
- viability, T/C [2]: 93.8%
- viability, T/C [3]: 104%
- viability, T/C [4]: 98.1%
- viability, T/C [5]: 98%
- viability, T/C [6]: 75.1%
- viability, T/C [7]: 108%
- viability, T/C [8]: 107%
- viability, T/C [9]: 103%
- viability, T/C [10]: 98.6%
- viability, T/C [11]: 95.4%
- viability, T/C [12]: 68.8%
- viability, T/C [13]: 112%
- viability, T/C [14]: 103%
- viability, T/C [15]: 101%
- viability, T/C [16]: 104%
- viability, T/C [17]: 101%
- viability, T/C [18]: 82.2%
- viability, T/C [19]: 98.6%
- viability, T/C [20]: 99.9%
- viability, T/C [21]: 100%
- viability, T/C [22]: 101%
- viability, T/C [23]: 101%
- viability, T/C [24]: 82.7%
- viability, T/C [25]: 98.4%
- viability, T/C [26]: 97.1%
- viability, T/C [27]: 99%
- viability, T/C [28]: 106%
- viability, T/C [29]: 106%
- viability, T/C [30]: 79.2%
- viability, T/C [31]: 91.3%
- viability, T/C [32]: 90.1%
- viability, T/C [33]: 99.6%
- viability, T/C [34]: 96.6%
- viability, T/C [35]: 104%
- viability, T/C [36]: 83.6%

- IC50 (second compound 0.000949 µM): 0.628 µM
- IC50 (second compound 0.003 µM): 0.537 µM
- IC50 (second compound 0.00949 µM): 0.573 µM
- IC50 (second compound 0.03 µM): 0.684 µM
- IC50 (second compound 0.0949 µM): 0.58 µM
- IC50 (second compound 0.3 µM): 0.604 µM
SMILES: O=C(c1ccc(F)c(F)c1Nc1ccc(I)cc1F)N1CC(O)([C@@H]2CCCCN2)C1 + CCn1c(-c2cccnc2C(C)OC)c2c3cc(ccc31)N1CCOC(CC(NC(=O)C(C(C)C)N(C)C(=O)C3(F)CCN(C(=O)C#CC(C)(C)N(C)C)CC3)C(=O)N3CCCC(N3)C(=O)OCC(C)(C)C2)C1
- viability, T/C [1]: 94%
- viability, T/C [2]: 94.9%
- viability, T/C [3]: 101%
- viability, T/C [4]: 91.3%
- viability, T/C [5]: 88%
- viability, T/C [6]: 24.4%
- viability, T/C [7]: 102%
- viability, T/C [8]: 108%
- viability, T/C [9]: 107%
- viability, T/C [10]: 83.2%
- viability, T/C [11]: 81.8%
- viability, T/C [12]: 18.4%
- viability, T/C [13]: 86%
- viability, T/C [14]: 108%
- viability, T/C [15]: 102%
- viability, T/C [16]: 88.8%
- viability, T/C [17]: 82.1%
- viability, T/C [18]: 20.9%
- viability, T/C [19]: 97.7%
- viability, T/C [20]: 98.6%
- viability, T/C [21]: 104%
- viability, T/C [22]: 91.2%
- viability, T/C [23]: 99%
- viability, T/C [24]: 26.4%
- viability, T/C [25]: 105%
- viability, T/C [26]: 103%
- viability, T/C [27]: 103%
- viability, T/C [28]: 81.8%
- viability, T/C [29]: 86.8%
- viability, T/C [30]: 22.3%
- viability, T/C [31]: 89%
- viability, T/C [32]: 90.8%
- viability, T/C [33]: 99%
- viability, T/C [34]: 82%
- viability, T/C [35]: 88.2%
- viability, T/C [36]: 20.3%
